Source: US8772329B2, “Compounds from mycelium of Antrodia cinnamomea and use thereof” (Simpson Biotech Co., Ltd., priority 2008, dated 2014)

Columns and labels:
[1] = target: T1, HCV NS3/4A protease (Hepatitis C virus genotype 1b, UniProt O92972); test: HCV protease inhibition assay (SensoLyte 520 HCV Protease Assay Kit, FRET peptide substrate); assay type: biochemical; details: for IC50: enzyme 0.5 μg/ml, 30 min at room temperature (28° C.), read-out: IC50 against HCV protease (converted)
T1 construct: HCV NS3/4A protease; purchased AnaSpec, San Jose, Calif., USA lot# Lot 046-047 (screening); lot# Lot 046-079 (mechanism study); catalogue number not given
From the text: Since the mycelium of Antrodia cinnamomea was recently reported to be clinically effective for hepatitis patients infected with HCV (Akiba T et al. 2007. Clinical study of Shoshi on Japanese hepatitis patients infected with C type hepatitis virus. The second Taiwan and Japan Symposium on Antrodia cinnamomea, Abst. pp. 82-98), a SensoLyte™ 520 HCV protease assay kit was applied to investigate the HCV-protease inhibitory activity of the isolated antrodins, the metabolites of antrodin C as well as one metabolite analogue. The assay method with a quenched-fluorogenic peptide substrate can be used for measure the activity of inhibitors as well as for continuous recording of the progress of the enzyme reaction.
The mode of inhibition was kinetically analyzed by plotting the enzyme activity at different concentrations of the substrate (10, 50, 100 and 200 times dilution of the substrate stocking solution) with (5 μg/ml, and 10 μg/ml) and without [0 μg/ml (DMSO)] compound 1.
HCV NS3/4A protease (lot# Lot 046-047 for the screening and lot# Lot 046-079 for the mechanism study) and SensoLyte™ 520 HCV Protease Assay Kit *Fluorimetric* (lot# AK 71147-1005) were purchased from AnaSpec, San Jose, Calif., USA. The substrate was a 5-FAM/QXL™520 FRET peptide based on the sequence of Ac-Asp-Glu-Asp(EDANS)-Glu-Glu-Abu-Ψ-[COO]Ala-Ser-Lys(DABCYL)-NH2. The assay was carried out on BD Falcon™ Microtest™384-well 120 μl black assay plates (lot#05391155). Fluorescence was measured by TECAN GENios plate reader at excitation/emission 485/530 nm Chemical compounds. Antrodins A-E (compounds 1-5) were isolated from the mycelium of Antrodia cinnamomea as reported (Nakamura et al., 2004. Five new maleic and succinic acid derivatives from the mycelium of Antrodia comphorata and their cytotoxic effects on LLC tumor cell line. J Nat Prod 67: 46-48). Embelin used as a positive control was isolated in our laboratory in previous work (Hussein et al., 2000, Inhibitory effects of Sudanese medicinal plant extracts on hepatitis C virus (HCV) Protease. Phytother Res 14: 510-516). Compounds 6, 7a and 7b were detected as the metabolites of antrodin C in vivo. Compounds 7a and 7b were un-separable due to the equilibrium of these two compounds through compound 1. It was thus used for the assay as a mixture of compounds 1, 7a and 7b and named 7. Compound 8 was an analogue of another metabolite whose glycine group was supposed to connect to the other carboxyl group in the structure.
Compound 6 was dissolved in H2O and other compounds were dissolved in DMSO for the assay. To each well were added 2 μl of respective compound solution and 8 μl of freshly diluted enzyme (0.5 μg/ml). The reaction was started by adding 10 μl of freshly diluted substrate (100 times dilution of a DMSO stocking solution). After being incubated at room temperature (28° C.) for 30 min, the fluorescence intensities were measured at Ex/Em=485 nm/535 nm. Inhibition percentages were calculated as 100×(Fvehicle−Fsample)/Fvehicle=% inhibition, where F is the fluorescence value of vehicle control or of compound minus the fluorescence of the substrate control.

[2] = test system: Propionicbacterium acnes and lipopolysaccharide treated mice; details: cited from earlier work
[3] = cited from earlier work

T1 sequence (O92972 1013-1207, looked up, natural form): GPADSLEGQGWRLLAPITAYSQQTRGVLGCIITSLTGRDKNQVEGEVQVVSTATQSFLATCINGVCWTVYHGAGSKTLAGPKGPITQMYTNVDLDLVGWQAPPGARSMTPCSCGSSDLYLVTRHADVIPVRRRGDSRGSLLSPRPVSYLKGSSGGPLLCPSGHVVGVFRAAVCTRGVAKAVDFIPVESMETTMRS

Structure (SMILES)	IC50 [1] [µM]	other results
CC(C)=CCOc1ccc(C2=C(CC(C)C)C(=O)OC2=O)cc1 [Compound 1, 3-isobutyl-4-[4-(3-methyl-2-butenyloxy)phenyl]furan-2,5-dione]	2.86	mode of HCV PR inhibition (Lineweaver-Burk plot) ([1]; compound 1 at 0, 5 and 10 μg/ml, substrate 10, 50, 100 and 200 times dilution): competitive
CC(C)=CCOc1ccc(C2=C(CC(C)C)C(=O)NC2=O)cc1 [Compound 2, 3-isobutyl-4-[4-(3-methyl-2-butenyloxy)phenyl]-1H-pyrrol-2,5-dione]	> 319	
CC(C)=CCOc1ccc(C2=C(CC(C)C)C(=O)N(O)C2=O)cc1 [Compound 3, 3-isobutyl-4-[4-(3-methyl-2-butenyloxy)phenyl]-1H-pyrrol-1-ol-2,5-dione]	8.8	protective activity [2]: showed protective activity; detection of parent compound in the body ([3]; after absorption): could not be detected in the body after absorption; absorption ([3]; gastrointestinal tract): quickly absorbed from the gastrointestinal tract; metabolization ([3]; liver): rapid and complete metabolization in liver; in vivo metabolism (metabolites formed) ([3]; metabolites: compounds 1, 2, 6, 7a, 7b and an analogue of compound 8): converted to six metabolites
CC(C)=CCOc1ccc(C2C(=O)N(O)C(=O)C2CC(C)C)cc1 (centres unmarked) [Compound 4, 3R*,4S*-1-hydroxy-3-isobutyl-4-[4-(3-methyl-2-butenyloxy)phenyl]pyrrolidine-2,5-dione]	60.3	
CC(C)=CCOc1ccc(C2C(=O)N(O)C(=O)C2CC(C)C)cc1 (centres unmarked) [Compound 5, 3R*,4R*-1-hydroxy-3-isobutyl-4-[4-(3-methyl-2-butenyloxy)phenyl]pyrrolidine-2,5-dione]	60.6	
CC(C)=CCOc1ccc(/C(C(=O)O)=C(\CC(C)C)C(=O)O)cc1 [Compound 6, (2Z)-2-isobutyl-3-{4-[(3-methylbut-2-en-1-yl)oxy]phenyl}but-2-enedioic acid]	19.9	
CC(C)=CCOc1ccc(/C(C(=O)NCC(=O)O)=C(\CC(C)C)C(=O)O)cc1 [Compound 8]	148	
CCCCCCCCCCCC1=C(O)C(=O)C=C(O)C1=O [Embelin, reference compound]	13.9	
